Assay results published in PubChem BioAssay (NCI).
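Cultured in 96-well plates, cells were exposed to test compound for 48 hours across five concentrations. GI50 is the concentration that inhibits growth by half. TGI denotes the concentration required for complete inhibition of growth.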

Tests used:
Assay in all cases: NCI anticancer screen, dose series, 48 h
[1] = test system: A498 renal
[2] = test system: A549 NSCLC
[3] = test system: ACHN renal
[4] = test system: BT-549 breast
[5] = test system: CAKI-1 renal
[6] = test system: CCRF-CEM leukemia
[7] = test system: COLO 205 colon
[8] = test system: DU-145 prostate
[9] = test system: EKVX NSCLC
[10] = test system: HCC-2998 colon
[11] = test system: HCT-116 colon
[12] = test system: HCT-15 colon
[13] = test system: HL-60(TB) leukemia
[14] = test system: HOP-62 NSCLC
[15] = test system: HOP-92 NSCLC
[16] = test system: HS 578T breast
[17] = test system: HT29 colon
[18] = test system: IGROV1 ovarian
[19] = test system: K-562 leukemia
[20] = test system: KM12 colon
[21] = test system: LOX IMVI melanoma
[22] = test system: M14 melanoma
[23] = test system: MALME-3M melanoma
[24] = test system: MCF7 breast
[25] = test system: MDA-MB-231 breast
[26] = test system: MDA-MB-435
[27] = test system: MOLT-4 leukemia
[28] = test system: NCI-H226 lung
[29] = test system: NCI-H23 lung
[30] = test system: NCI-H460 lung
[31] = test system: NCI-H522 lung
[32] = test system: NCI/ADR-RES ovarian
[33] = test system: OVCAR-3 ovarian
[34] = test system: OVCAR-4 ovarian
[35] = test system: OVCAR-5 ovarian
[36] = test system: OVCAR-8 ovarian
[37] = test system: PC-3 prostate
[38] = test system: RPMI-8226 leukemia
[39] = test system: RXF 393 renal
[40] = test system: SF-268 CNS
[41] = test system: SF-295 CNS
[42] = test system: SF-539 CNS
[43] = test system: SK-MEL-2 melanoma
[44] = test system: SK-MEL-28 melanoma
[45] = test system: SK-MEL-5 melanoma
[46] = test system: SK-OV-3 ovarian
[47] = test system: SN12C renal
[48] = test system: SNB-19 CNS
[49] = test system: SNB-75 CNS
[50] = test system: SR leukemia
[51] = test system: SW-620 colon
[52] = test system: T-47D breast
[53] = test system: TK-10 renal
[54] = test system: U251 CNS
[55] = test system: UACC-257 melanoma
[56] = test system: UACC-62 melanoma
[57] = test system: UO-31 renal
[58] = test system: 786-0 renal

Structure (SMILES): O=C1/C(=C/c2ccccc2[N+](=O)[O-])Oc2ccc(O)cc21
- GI50 [1]: 2 µM
- TGI [1]: 16.9 µM
- GI50 [2]: 4.83 µM
- TGI [2]: 26 µM
- GI50 [3]: 2.42 µM
- TGI [3]: 8.98 µM
- GI50 [4]: 3.16 µM
- TGI [4]: 12.5 µM
- GI50 [5]: 1.62 µM
- TGI [5]: 3.83 µM
- GI50 [6]: 2.81 µM
- TGI [6]: > 100 µM
- GI50 [7]: 2.19 µM
- TGI [7]: 5.88 µM
- GI50 [8]: 2.26 µM
- TGI [8]: 5.38 µM
- GI50 [9]: 3.77 µM
- TGI [9]: 14.8 µM
- GI50 [10]: 2.74 µM
- TGI [10]: 7.94 µM
- GI50 [11]: 1.75 µM
- TGI [11]: 4.17 µM
- GI50 [12]: 1.85 µM
- TGI [12]: 5.47 µM
- GI50 [13]: 2.99 µM
- TGI [13]: 9.91 µM
- GI50 [14]: 7 µM
- TGI [14]: 38.9 µM
- GI50 [15]: 2.24 µM
- TGI [15]: 9.33 µM
- GI50 [16]: 1.9 µM
- TGI [16]: 6.35 µM
- GI50 [17]: 2.83 µM
- TGI [17]: 11.3 µM
- GI50 [18]: 1.62 µM
- TGI [18]: 6.18 µM
- GI50 [19]: 2.84 µM
- TGI [19]: > 100 µM
- GI50 [20]: 4.38 µM
- TGI [20]: 16.4 µM
- GI50 [21]: 1.61 µM
- TGI [21]: 3.36 µM
- GI50 [22]: 2.02 µM
- TGI [22]: 4.99 µM
- GI50 [23]: 2.08 µM
- TGI [23]: 5.85 µM
- GI50 [24]: 1.73 µM
- TGI [24]: 5.52 µM
- GI50 [25]: 2.6 µM
- TGI [25]: 9.46 µM
- GI50 [26]: 2.66 µM
- TGI [26]: 7.52 µM
- GI50 [27]: 3.29 µM
- TGI [27]: > 100 µM
- GI50 [28]: 1.73 µM
- TGI [28]: 4.77 µM
- GI50 [29]: 2.1 µM
- TGI [29]: 5.17 µM
- GI50 [30]: 3.09 µM
- TGI [30]: 10.1 µM
- GI50 [31]: 2.08 µM
- TGI [31]: 4.83 µM
- GI50 [32]: 2.47 µM
- TGI [32]: 7.36 µM
- GI50 [33]: 1.9 µM
- TGI [33]: 3.88 µM
- GI50 [34]: 2.58 µM
- TGI [34]: 9.58 µM
- GI50 [35]: 2.21 µM
- TGI [35]: 5.72 µM
- GI50 [36]: 2.86 µM
- TGI [36]: > 100 µM
- GI50 [37]: 3.08 µM
- TGI [37]: 14.2 µM
- GI50 [38]: 2.4 µM
- TGI [38]: 7.56 µM
- GI50 [39]: 1.8 µM
- TGI [39]: 3.61 µM
- GI50 [40]: 6.32 µM
- TGI [40]: 35.9 µM
- GI50 [41]: 4.11 µM
- TGI [41]: 15.4 µM
- GI50 [42]: 2.16 µM
- TGI [42]: 5.61 µM
- GI50 [43]: 3.23 µM
- TGI [43]: 15.1 µM
- GI50 [44]: 2.37 µM
- TGI [44]: 6.08 µM
- GI50 [45]: 8.89 µM
- TGI [45]: 22 µM
- GI50 [46]: 15.3 µM
- TGI [46]: 62.1 µM
- GI50 [47]: 2.52 µM
- TGI [47]: 7.68 µM
- GI50 [48]: 5.24 µM
- TGI [48]: 19 µM
- GI50 [49]: 1.44 µM
- TGI [49]: 42.4 µM
- GI50 [50]: 2.69 µM
- TGI [50]: > 100 µM
- GI50 [51]: 1.66 µM
- TGI [51]: 4.12 µM
- GI50 [52]: 2.84 µM
- TGI [52]: 19.4 µM
- GI50 [53]: 3.2 µM
- TGI [53]: 7.7 µM
- GI50 [54]: 2.77 µM
- TGI [54]: 11.1 µM
- GI50 [55]: 4.33 µM
- TGI [55]: 38.3 µM
- GI50 [56]: 2.26 µM
- TGI [56]: 6.2 µM
- GI50 [57]: 1.95 µM
- TGI [57]: 6.86 µM

Structure (SMILES): Fc1ccc(-c2cc3nc(C(Cl)Cl)nc(-c4cccs4)n3n2)cc1
- GI50 [58]: 2.31 µM
- TGI [58]: 7.33 µM
- GI50 [1]: 1.02 µM
- TGI [1]: 2.36 µM
- GI50 [2]: 0.745 µM
- TGI [2]: 4.92 µM
- GI50 [3]: 0.301 µM
- TGI [3]: 1.21 µM
- GI50 [4]: > 100 µM
- TGI [4]: > 100 µM
- GI50 [5]: 1.22 µM
- TGI [5]: 5.04 µM
- GI50 [6]: 19.6 µM
- TGI [6]: > 100 µM
- GI50 [7]: 0.805 µM
- TGI [7]: 3.12 µM
- GI50 [8]: 0.31 µM
- TGI [8]: 0.888 µM
- GI50 [9]: 1.12 µM
- TGI [9]: 4.07 µM
- GI50 [10]: 0.41 µM
- TGI [10]: 1.59 µM
- GI50 [11]: 1.53 µM
- TGI [11]: > 100 µM
- GI50 [12]: 1.1 µM
- TGI [12]: 3.71 µM
- GI50 [13]: 0.29 µM
- TGI [13]: 2.23 µM
- GI50 [14]: 0.454 µM
- TGI [14]: 3.46 µM
- GI50 [15]: 0.537 µM
- TGI [15]: 2.96 µM
- GI50 [16]: 1.95 µM
- TGI [16]: 7.03 µM
- GI50 [17]: 0.356 µM
- TGI [17]: 2.05 µM
- GI50 [18]: 3.07 µM
- TGI [18]: > 100 µM
- GI50 [19]: 2.53 µM
- TGI [19]: > 100 µM
- GI50 [20]: 2.2 µM
- TGI [20]: 17.5 µM
- GI50 [22]: 4.5 µM
- TGI [22]: > 100 µM
- GI50 [23]: 7.5 µM
- TGI [23]: > 100 µM
- GI50 [24]: 0.369 µM
- TGI [24]: 4.31 µM
- GI50 [25]: 0.505 µM
- TGI [25]: 3.1 µM
- GI50 [26]: 1.63 µM
- TGI [26]: 3.45 µM
- GI50 [27]: 3.56 µM
- TGI [27]: > 100 µM
- GI50 [28]: > 100 µM
- TGI [28]: > 100 µM
- GI50 [29]: 1.47 µM
- TGI [29]: 4 µM
- GI50 [30]: 0.309 µM
- TGI [30]: 1.19 µM
- GI50 [31]: > 100 µM
- TGI [31]: > 100 µM
- GI50 [32]: 1.17 µM
- TGI [32]: 5.66 µM
- GI50 [34]: 2.39 µM
- TGI [34]: 6.22 µM
- GI50 [35]: 1.75 µM
- TGI [35]: 5.31 µM
- GI50 [36]: 1.21 µM
- TGI [36]: > 100 µM
- GI50 [37]: 1.19 µM
- TGI [37]: 4.67 µM
- GI50 [38]: 0.847 µM
- TGI [38]: 5.79 µM
- GI50 [39]: 0.403 µM
- TGI [39]: 1.71 µM
- GI50 [40]: 1.61 µM
- TGI [40]: 7.99 µM
- GI50 [41]: 0.949 µM
- TGI [41]: 4.79 µM
- GI50 [42]: 1.05 µM
- TGI [42]: 2.89 µM
- GI50 [43]: 3.1 µM
- TGI [43]: 9.66 µM
- GI50 [44]: 1.86 µM
- TGI [44]: 3.59 µM
- GI50 [45]: > 100 µM
- TGI [45]: > 100 µM
- GI50 [46]: 2.21 µM
- TGI [46]: 13.8 µM
- GI50 [47]: 36.1 µM
- TGI [47]: > 100 µM
- GI50 [48]: 0.664 µM
- TGI [48]: 4.4 µM
- GI50 [49]: 0.284 µM
- TGI [49]: 2.81 µM
- GI50 [50]: 3.7 µM
- TGI [50]: > 100 µM
- GI50 [51]: 1.18 µM
- TGI [51]: 8.61 µM
- GI50 [52]: 1.6 µM
- TGI [52]: 7.24 µM
- GI50 [53]: 3.14 µM
- TGI [53]: 6.88 µM
- GI50 [54]: 0.319 µM
- TGI [54]: 1.98 µM
- GI50 [55]: 3.04 µM
- TGI [55]: 9.15 µM
- GI50 [56]: 2.71 µM
- TGI [56]: 15 µM
- GI50 [57]: 1.26 µM
- TGI [57]: 5.5 µM
